Assay results published in patent publication EP0139005A1, “ANTITUMOR COMPOSITION, METHOD FOR TREATING TUMOR, AND USE OF THE COMPOSITION FOR TREATING TUMOR” (Yoshitomi Pharmaceutical Industries, Ltd., priority 1982, dated 1984).

Tests used:
P388 leukemia = P388 leukemia implanted intraperitoneally, survival (Experimental Example 2); format: in vivo, female CDF1 mice; settings: for 30-day Survivors / Average Survival Time / Life-Prolongation Ratio (%): once daily for seven days
Description: (§1) The life-prolongation ratio was calculated by the following scheme (the same scheme is applied to the subsequent experimental examples).
(§2) Life-prolongation Ratio [formula] T : Average survival days of the treated group
(§3) C : Average survival days of the control group
(§4) Animals survived over 30 days or longer were estimated as 30-day survivors, and the cases where T/C equals to or greater than 125% were regarded as effective.
A plurality of groups each consisting of five heads of female CDF1 mice (7-8 weeks old) were respectively implanted intraperitoneally with 10^6 cells of P388 leukemia. After 24 hours, Y-6430 and ESCC were respectively administered once daily for seven days, and average survival days, life-prolongation ratios and 30-day survivors in each group were calculated.

L1210 leukemia [1] = assay: L1210 leukemia implanted intraperitoneally, i.p. treatment, survival (Experimental Example 3); format: in vivo, female CDF1 mice; settings: for Average Survival Time / Life-Prolongation Ratio (%): once daily for seven days; for effectiveness against L1210 leukemia: i.p., all doses of Table 4
Description: as §1, §2, §3, §4
A plurality of groups each consisting of five heads of female CDF1 mice (8 weeks old) were respectively implanted intraperitoneally with 10 cells of L1210 leukemia. After the next day of the implantation, Y-6430, ESCC and ESCC ethyl ester (hereinafter referred to ESCC-Et) in physiological saline were respectively administered once daily for seven days intraperitoneally, and the average survival days and life-prolongation ratios in each group were calculated.
(§5) All the test animals died of tumor within 30 days.

L1210 leukemia [2] = assay: L1210 leukemia implanted intraperitoneally, oral or subcutaneous treatment, survival (Experimental Example 4); format: in vivo, female CDF1 mice; settings: for Average Survival Time / Life-Prolongation Ratio (%): once daily for seven days
Description: as §1, §2, §3, §4
A plurality of groups each consisting of five female CDF1 mice (7-8 weeks old) were respectively implanted intraperitoneally with 10 cells of L1210 leukemia. After the next day of the implantation, the test animals were administered orally or subcutaneously once daily for seven days with Y-6430 or ESCC dissolved in physiological saline, and the average survival days and life-prolongation ratios in each group were calculated.
as §5

experimental tumors = settings: L. Nemeth et al., Arzneim.-Forsh./Drug Res. 28(II), 1119-1123 (1978); cited from earlier work
leukemia = settings: R.H. Adamson, Nature 217, 751-752 (1968); cited from earlier work

## CCNC(=O)SC[C@H](N)C(=O)O [ESCC, S-ethylcarbamoyl-L-cysteine, reference compound]
P388 leukemia; 100 mg/kg/day p.o.
  30-day Survivors: 0/5
  Average Survival Time: 10.2 days
  Life-Prolongation Ratio (%): 102%
P388 leukemia; 250 mg/kg/day p.o.
  30-day Survivors: 0/5
  Average Survival Time: 10.8 days
  Life-Prolongation Ratio (%): 108%
P388 leukemia; 500 mg/kg/day p.o.
  30-day Survivors: 0/5
  Average Survival Time: 10.8 days
  Life-Prolongation Ratio (%): 108%
P388 leukemia; 1,000 mg/kg/day p.o.
  30-day Survivors: 0/5
  Average Survival Time: 12.6 days
  Life-Prolongation Ratio (%): 126%
P388 leukemia; summary of Tables 2 and 3, T/C equal to or greater than 125% regarded as effective
  effectiveness against P388 leukemia: only slightly effective
L1210 leukemia [1]; 50 mg/kg/day i.p.
  Average Survival Time: 8.0 days
  Life-Prolongation Ratio (%): 108%
L1210 leukemia [1]; 100 mg/kg/day i.p.
  Average Survival Time: 8.0 days
  Life-Prolongation Ratio (%): 108%
L1210 leukemia [1]; 250 mg/kg/day i.p.
  Average Survival Time: 9.0 days
  Life-Prolongation Ratio (%): 122%
L1210 leukemia [1]; 500 mg/kg/day i.p.
  Average Survival Time: 9.0 days
  Life-Prolongation Ratio (%): 122%
L1210 leukemia [1]
  effectiveness against L1210 leukemia: ineffective
L1210 leukemia [2]; 100 mg/kg/day s.c.
  Average Survival Time: 8.0 days
  Life-Prolongation Ratio (%): 100%
L1210 leukemia [2]; 250 mg/kg/day s.c.
  Average Survival Time: 8.0 days
  Life-Prolongation Ratio (%): 100%
L1210 leukemia [2]; 500 mg/kg/day p.o.
  Average Survival Time: 8.0 days
  Life-Prolongation Ratio (%): 98%
L1210 leukemia [2]; 500 mg/kg/day s.c.
  Average Survival Time: 8.0 days
  Life-Prolongation Ratio (%): 100%
L1210 leukemia [2]; 1,000 mg/kg/day p.o.
  Average Survival Time: 9.2 days
  Life-Prolongation Ratio (%): 112%
L1210 leukemia [2]; 2,000 mg/kg/day p.o.
  Average Survival Time: 9.6 days
  Life-Prolongation Ratio (%): 117%
L1210 leukemia [2]; oral and subcutaneous administration
  effectiveness against L1210 leukemia: ineffective
Experimental tumors
  effect against experimental tumors: more excellent effect than S-carbamoyl-L-cysteine

## CCNC(=O)SC[C@H](N)C(=O)OCC [ESCC-Et, ESCC ethyl ester]
L1210 leukemia [1]; 50 mg/kg/day i.p.
  Average Survival Time: 8.2 days
  Life-Prolongation Ratio (%): 103%
L1210 leukemia [1]; 100 mg/kg/day i.p.
  Average Survival Time: 8.4 days
  Life-Prolongation Ratio (%): 105%
L1210 leukemia [1]; 250 mg/kg/day i.p.
  Average Survival Time: 9.0 days
  Life-Prolongation Ratio (%): 113%
L1210 leukemia [1]; 500 mg/kg/day i.p.
  Average Survival Time: 9.0 days
  Life-Prolongation Ratio (%): 113%
L1210 leukemia [1]
  effectiveness against L1210 leukemia: ineffective

## NC(=O)SC[C@H](N)C(=O)O [S-carbamoyl-L-cysteine]
leukemia
  effectiveness against leukemia in mice: effective
